Laboratory results: patent publication US8754259B2, “Synthesis of cyclohexane derivatives useful as sensates in consumer products” (The Proctor & Gamble Company, priority 2008, dated 2014)
Values belong to the compound of their own block, whether it stands above or below them.

What was measured:
[1] = concentration where the cooling effect could be clearly recognized; cited from earlier work
[2] = Cooling rating of test dentifrices relative to control dentifrice, panelists n=9; format: in vivo, human; conditions: for Cooling Rating Relative to Control: control = 60 on 1-90 scale; for cooling power compared to l-menthyl lactate: in words, dentifrice panel test, 60 minute period
Experimental: The neo-coolants synthesized according to the routes outlined herein were tested to rate their cooling power compared with the corresponding l-isomers (commercially available samples) using the following protocol. Control and test coolants were formulated into a dentifrice at various levels according to the following formula.
Panelists (n=9) were instructed to brush for 30 seconds with a control dentifrice (containing a mixture of coolants 1500 ppm l-WS-3, 3000 ppm Menthol, 3000 ppm MGA and 1000 ppm WS-23), expectorate, and assign the control dentifrice a cooling rating of 60 on a 1-90 scale. The panelists were then given the test dentifrices in random order and instructed to brush and rate each sample relative to the control over a 60-minute period. Cooling ratings relative to control are summarized below.

[3] = Sensory studies of coolant activity (G-180 and neoisomer vs menthol); format: in vivo, human; conditions: for burning sensation: sensory evaluations by panelists
Experimental: The coolant properties of the materials prepared according to the present methods are evaluated using sensory studies. […] By contrast, both the G-180 and neoisomer materials provided a sensation that lasted longer than about 15 minutes. The cooling potency of the neoisomer is particularly unexpected, since stereochemistry is a major factor influencing coolant activity and potency for menthol and menthol derivatives as reported in previous studies. [See for example, R. Emberger and R. Hopp (1987), Specialty Chemicals, 7(3), 193-201; R. Eccles (1990), Chemical Senses, 2, 275-291; S. Rovner (2007), Chemical & Engineering News, 85(39), 95-98]. […] The effect on activity of these isomers is far more significant than is observed with menthol.
Sensory evaluation studies of coolant activity may be conducted using a methodology patterned after the techniques described in M. C. Meilgaard, et al., Sensory Evaluation Techniques, 4th Ed. (2007). A panel of trained sensory experts evaluates cooling sensation experienced after using a product with coolant, for example by brushing with a dentifrice or rinsing with an aqueous rinse. In one protocol, panelists brush teeth with 1.5 grams of a test dentifrice (containing coolant) or control (no coolant) and then expectorate. After brush expectoration, panelists evaluate cooling intensity, assigning a number between 0 (no cooling) to 60 (intense cooling). In a rinse protocol, panelists rinse mouth with 15 ml. of an aqueous rinse and expectorate. After rinse expectoration, panelists evaluate cooling intensity according to the same 0 to 60 scale. Evaluations are conducted various time points, for example, at 5, 15, 30, 45, 60 minute, etc. At each evaluation, panelists are instructed to breathe in through pursed lips and evaluate overall cooling sensation. In this test, a numerical score of 7.5 indicates meaningful or definite cooling.

[4] = 0 min, 500 ppm coolant in dentifrice
[5] = 15 min, 500 ppm coolant in dentifrice
[6] = 30 min, 500 ppm coolant in dentifrice
[7] = 45 min, 500 ppm coolant in dentifrice
[8] = 60 min, 500 ppm coolant in dentifrice
[9] = 0 min, 1500 ppm coolant in dentifrice
[10] = 15 min, 1500 ppm coolant in dentifrice
[11] = 30 min, 1500 ppm coolant in dentifrice
[12] = 45 min, 1500 ppm coolant in dentifrice
[13] = 60 min, 1500 ppm coolant in dentifrice

Compound: CC(C)[C@H]1CC[C@H](C)C[C@H]1O [l-neomenthol]
- cooling threshold [1]: about 3,000 ppb

Compound: CC(C)[C@@H]1CC[C@@H](C)C[C@H]1OC(=O)[C@H](C)O [l-Menthyl lactate (2S), reference compound]
- Cooling Rating Relative to Control [2, 4]: 50.0
- Cooling Rating Relative to Control [2, 5]: 38.0
- Cooling Rating Relative to Control [2, 6]: 26.5
- Cooling Rating Relative to Control [2, 7]: 18.5
- Cooling Rating Relative to Control [2, 8]: 13.5

Compound: CCNC(=O)[C@H]1C[C@H](C)CC[C@H]1C(C)C [Neo-WS-3]
- Cooling Rating Relative to Control [2, 9]: 43.3
- Cooling Rating Relative to Control [2, 10]: 33.9
- Cooling Rating Relative to Control [2, 11]: 23.3
- Cooling Rating Relative to Control [2, 12]: 16.7
- Cooling Rating Relative to Control [2, 13]: 13.3

Compound: CC(=O)C(=O)OC1CC(C)CCC1C(C)C (stereo not shown) [Neo-Menthyl pyruvate]
- Cooling Rating Relative to Control ([2]; 0 min, 1000 ppm coolant in dentifrice): 57.8
- Cooling Rating Relative to Control ([2]; 15 min, 1000 ppm coolant in dentifrice): 45.0
- Cooling Rating Relative to Control ([2]; 30 min, 1000 ppm coolant in dentifrice): 30.6
- Cooling Rating Relative to Control ([2]; 45 min, 1000 ppm coolant in dentifrice): 21.1
- Cooling Rating Relative to Control ([2]; 60 min, 1000 ppm coolant in dentifrice): 16.1

Compound: CC(=O)O[C@@H](C)C(=O)O[C@H]1C[C@H](C)CC[C@H]1C(C)C [Neo-Menthyl lactate acetate (2S), (1S,2S,5R)-2-isopropyl-5-methylcyclohexyl-2(S)-acetoxypropanoate]
- Cooling Rating Relative to Control ([2]; 0 min, 335 ppm coolant in dentifrice): 64.4
- Cooling Rating Relative to Control ([2]; 15 min, 335 ppm coolant in dentifrice): 46.3
- Cooling Rating Relative to Control ([2]; 30 min, 335 ppm coolant in dentifrice): 33.1
- Cooling Rating Relative to Control ([2]; 45 min, 335 ppm coolant in dentifrice): 26.3
- Cooling Rating Relative to Control ([2]; 60 min, 335 ppm coolant in dentifrice): 21.3
- cooling power compared to l-menthyl lactate [2]: very strong initial cooling as well as over the 60 minute time period

- melting point: 167 to 169 °C
Compound: CC(C)[C@@H]1CC[C@@H](C)C[C@@H]1C(=O)Nc1ccc(CC#N)cc1 [Neo-G-180, N-[4-(cyanomethyl)phenyl]-(1S,2S,5R)-2-isopropyl-5-methylcyclohexanecarboxamide]
- cooling properties ([3]; in vivo): excellent cooling properties
- burning sensation [3]: significantly less of the “burning” sensation

Compound: CC(C)[C@@H]1CC[C@@H](C)C[C@H]1C(=O)Nc1ccc(CC#N)cc1 [G-180, N-[4-(cyanomethyl)phenyl]-(1R,2S,5R)-2-isopropyl-5-methylcyclohexanecarboxamide, reference compound]
- burning sensation [3]: “burning” sensation especially when used at fairly high levels

Compound: CC1CCC(C(C)C)C(OC(=O)C(C)O)C1 [Neo-Menthyl lactate (2S)]
- Cooling Rating Relative to Control [2, 4]: 62.2
- Cooling Rating Relative to Control [2, 5]: 43.9
- Cooling Rating Relative to Control [2, 6]: 33.9
- Cooling Rating Relative to Control [2, 7]: 27.5
- Cooling Rating Relative to Control [2, 8]: 16.7
- cooling power compared to l-menthyl lactate [2]: very strong initial cooling as well as over the 60 minute time period

Compound: CCNC(=O)C1CC(C)CCC1C(C)C (stereo not drawn) [l-WS-3, N-ethyl-ρ-menthan-3-carboxamide, reference compound]
- Cooling Rating Relative to Control [2, 9]: 53.5
- Cooling Rating Relative to Control [2, 10]: 36.5
- Cooling Rating Relative to Control [2, 11]: 27.0
- Cooling Rating Relative to Control [2, 12]: 20.5
- Cooling Rating Relative to Control [2, 13]: 15.5

Compound: Neo-Menthyl lactate [Neo-Menthyl lactate (~2:1 S:R)]
- Cooling Rating Relative to Control ([2]; 0 min, 1950 ppm coolant in dentifrice): 50.6
- Cooling Rating Relative to Control ([2]; 15 min, 1950 ppm coolant in dentifrice): 42.8
- Cooling Rating Relative to Control ([2]; 30 min, 1950 ppm coolant in dentifrice): 30.6
- Cooling Rating Relative to Control ([2]; 45 min, 1950 ppm coolant in dentifrice): 22.2
- Cooling Rating Relative to Control ([2]; 60 min, 1950 ppm coolant in dentifrice): 16.7

Compound: CC(C)[C@@H]1CC[C@@H](C)C[C@H]1O [L-menthol, l-menthol, reference compound]
- course of cooling sensation after use ([3]; sensory studies): drops sharply within a few minutes after use
- cooling threshold [1]: about 800 ppb

Compound: CCOC(=O)CNC(=O)C1CC(C)CCC1C(C)C (stereo not drawn) [l-WS-5, N-ethoxycarbonylmethyl-ρ-menthan-3-carboxamide, reference compound]
- Cooling Rating Relative to Control [2, 9]: 53.9
- Cooling Rating Relative to Control [2, 10]: 40.0
- Cooling Rating Relative to Control [2, 11]: 26.7
- Cooling Rating Relative to Control [2, 12]: 17.8
- Cooling Rating Relative to Control [2, 13]: 13.3

Compound: CCOC(=O)CNC(=O)[C@H]1C[C@H](C)CC[C@H]1C(C)C [NeoWS-5]
- Cooling Rating Relative to Control [2, 9]: 61.9
- Cooling Rating Relative to Control [2, 10]: 39.3
- Cooling Rating Relative to Control [2, 11]: 29.3
- Cooling Rating Relative to Control [2, 12]: 21.4
- Cooling Rating Relative to Control [2, 13]: 15.7

Compound: CC(C)[C@@H]1CC[C@@H](C)C[C@@H]1O [d-neomenthol]
- cooling threshold [1]: about 25,000 ppb
